Source: patent publication US4957923A, “Diuretic or antihypertensive composition” (Fujisawa Pharmaceutical Co., Ltd., priority 1988, dated 1990)

Tests used:
Female SD rats = experiment: Diuretic action (rats); assay type: in vivo, rat (SD); conditions: mean ± S.E.
Method: Female SD rats aged 6 weeks (9 rats per dosage) were used. After an 18-hour fast, the rats were dosed with the test drug and, at the same time, orally loaded with 20 ml/kg of physiological saline. The rats were then placed in metabolism cages, 3 animals per cage, and the 0-6 hour and 6-24 hour urines were collected. Meanwhile, the animals were additionally loaded with 25 ml/kg of physiological saline immediately after collection of the 0-6 hour urine. Na^+ in urine was determined with STAT/ION II (Technicon).
The results were respectively converted to the amounts of excretion per kg rat body weight, which were then tabulated as the mean±S.E. for each dose level.
The drug was suspended in 0.5% methylcellulose at necessary concentrations and 5 ml/kg of each suspension was orally administered. The control group similarly received 0.5% methylcellulose only.

Female beagle dogs = experiment: Diuretic action (beagle dogs); assay type: in vivo, dog (beagle); conditions: 100 mg/kg p.o., interval not given, mean ± S.E.
Method: Female beagle dogs weighing 8 to 10 kg were used (6 dogs per group). After an 18-hour fast, the animals were orally dosed with 5 ml/kg of suspensions of the drug in 0.5% methylcellulose and, at the same time, orally loaded with 15 ml/kg of physiological saline and the 0-6 hr and 6-24 hr urines were collected. Meanwhile, the dogs were additionally loaded with 20 ml/kg of physiological saline immediately after collection of the 0-6 hr urine. Na^+ in urine was determined with STAT/ION (Technicone).
The results were respectively converted to the amounts of excretion per kg body weight, which were then tabulated as the mean±S.E. for each dose level. The control group similarly received 0.5% methylcellulose instead of the drug.

DOCA hypertensive rats = experiment: Antihypertension action (DOCA hypertensive rats); assay type: in vivo, rat (Wistar)
Method: Male Wistar rats, 10 weeks old, were subjected to left nephrectomy and 2 to 4 days after operation, deoxycorticosterone acetate was administered subcutaneously in a dose of 30 mg/ml/kg twice a week. The animals were given 1% saline for drinking water and the individuals showing a mean blood pressure of ≥150 mmHg at 15 weeks of age were submitted to the experiment. After catheterization, saline for drinking water was replaced with tap water. At the beginning of the experiment, the test rats had mean blood pressures from 152 to 204 mmHg, heart rates from 354 to 462 beats/min. and body weights from 232 to 318 g. 3~5 Animals per group were used.
3 Or 4 days before the beginning of the experiment, one end of a catheter for blood pressure measurement was passed from the femoral artery to the abdominal aorta of each rat and the other end was passed beneath the skin and fixed in exposed position in the dorsocervical region. The drug was orally administered once a day for 5 consecutive days. The rats had been deprived of food for about 3 hours before drug administration. The blood pressure was measured before administration and 5 hours after administration of days 1, 3 and 5. At each blood pressure measurement, the mean blood pressure was observed via a pressure transducer connected to the dorsocervical end of the catheter for blood pressure measurement and the stabilized mean blood pressure was recorded.
Drug was suspended and diluted using a 0.5% solution of methylcellulose and 5ml/kg of the suspension was orally administered.

[1] = 3.2 mg/kg p.o. once a day, Day 1 after 5 hr
[2] = 3.2 mg/kg p.o. once a day, Day 1 before administration (baseline)
[3] = 3.2 mg/kg p.o. once a day, Day 3 after 5 hr
[4] = 3.2 mg/kg p.o. once a day, Day 3 before administration
[5] = 3.2 mg/kg p.o. once a day, Day 5 after 5 hr
[6] = 3.2 mg/kg p.o. once a day, Day 5 before administration
[7] = 10 mg/kg p.o. once a day, Day 1 after 5 hr
[8] = 10 mg/kg p.o. once a day, Day 1 before administration (baseline)
[9] = 10 mg/kg p.o. once a day, Day 3 after 5 hr
[10] = 10 mg/kg p.o. once a day, Day 3 before administration
[11] = 10 mg/kg p.o. once a day, Day 5 after 5 hr
[12] = 10 mg/kg p.o. once a day, Day 5 before administration
[13] = 100 mg/kg p.o. once a day, Day 1 after 5 hr
[14] = 100 mg/kg p.o. once a day, Day 1 before administration (baseline)
[15] = 100 mg/kg p.o. once a day, Day 3 after 5 hr
[16] = 100 mg/kg p.o. once a day, Day 3 before administration
[17] = 100 mg/kg p.o. once a day, Day 5 after 5 hr
[18] = 100 mg/kg p.o. once a day, Day 5 before administration

Structure (SMILES): O=C(O)Cn1c(=O)n(Cc2ccc(Br)cc2F)c(=O)c2ccc(F)cc21 [Compound B, 2-[7-Fluoro-3-(4-bromo-2-fluorobenzyl)-1,2,3,4-tetrahydro-2,4-dioxoquinazolin-1-yl]acetic acid]
- Urine volume (Female SD rats; 100 mg/kg p.o., 0-6 hr, control 13.2 ± 2.0): 30.1 ± 1.5 mL/kg
- Na^+ (urine) (Female SD rats; 100 mg/kg p.o., 0-6 hr, control 1460 ± 173): 2416 ± 101 μEq/kg
- Urine volume (Female SD rats; 100 mg/kg p.o., 6-24 hr, control 26.59 ± 2.24): 33.69 ± 0.55 mL/kg
- Na^+ (urine) (Female SD rats; 100 mg/kg p.o., 6-24 hr, control 3830 ± 463): 3940 ± 295 μEq/kg
- Urine volume (Female SD rats; 100 mg/kg p.o., total 0-24 hr, control 39.78 ± 4.26): 63.75 ± 1.19 mL/kg
- Na^+ (urine) (Female SD rats; 100 mg/kg p.o., total 0-24 hr, control 5289 ± 636): 6356 ± 311 μEq/kg
- Urine volume (Female SD rats; 320 mg/kg p.o., 0-6 hr, control 13.2 ± 2.0): 37.9 ± 1.5 mL/kg
- Na^+ (urine) (Female SD rats; 320 mg/kg p.o., 0-6 hr, control 1460 ± 173): 3021 ± 440 μEq/kg
- Urine volume (Female SD rats; 320 mg/kg p.o., 6-24 hr, control 26.59 ± 2.24): 61.22 ± 6.20 mL/kg
- Na^+ (urine) (Female SD rats; 320 mg/kg p.o., 6-24 hr, control 3830 ± 463): 5861 ± 194 μEq/kg
- Urine volume (Female SD rats; 320 mg/kg p.o., total 0-24 hr, control 39.78 ± 4.26): 99.10 ± 6.64 mL/kg
- Na^+ (urine) (Female SD rats; 320 mg/kg p.o., total 0-24 hr, control 5289 ± 636): 8882 ± 630 μEq/kg
- Urine volume (Female beagle dogs; control 5.8 ± 1.4): 13.3 ± 2.6 mL/kg
- Na^+ (urine) (Female beagle dogs; control 544 ± 133): 1068 ± 280 μEq/kg
- Mean blood pressure (DOCA hypertensive rats; [1]): 176 mm Hg
- Percentage of change (mean blood pressure) (DOCA hypertensive rats; [1]): -8.9%
- Mean blood pressure (DOCA hypertensive rats; [2]): 193 mm Hg
- Percentage of change (mean blood pressure) (DOCA hypertensive rats; [2]): 0.0%
- Mean blood pressure (DOCA hypertensive rats; [3]): 160 mm Hg
- Percentage of change (mean blood pressure) (DOCA hypertensive rats; [3]): -17.1%
- Mean blood pressure (DOCA hypertensive rats; [4]): 175 mm Hg
- Percentage of change (mean blood pressure) (DOCA hypertensive rats; [4]): -9.3%
- Mean blood pressure (DOCA hypertensive rats; [5]): 161 mm Hg
- Percentage of change (mean blood pressure) (DOCA hypertensive rats; [5]): -16.7%
- Mean blood pressure (DOCA hypertensive rats; [6]): 167 mm Hg
- Percentage of change (mean blood pressure) (DOCA hypertensive rats; [6]): -13.5%
- Mean blood pressure (DOCA hypertensive rats; [7]): 148 mm Hg
- Percentage of change (mean blood pressure) (DOCA hypertensive rats; [7]): -17.5%
- Mean blood pressure (DOCA hypertensive rats; [8]): 180 mm Hg
- Percentage of change (mean blood pressure) (DOCA hypertensive rats; [8]): 0.0%
- Mean blood pressure (DOCA hypertensive rats; [9]): 132 mm Hg
- Percentage of change (mean blood pressure) (DOCA hypertensive rats; [9]): -26.1%
- Mean blood pressure (DOCA hypertensive rats; [10]): 137 mm Hg
- Percentage of change (mean blood pressure) (DOCA hypertensive rats; [10]): -23.3%
- Mean blood pressure (DOCA hypertensive rats; [11]): 143 mm Hg
- Percentage of change (mean blood pressure) (DOCA hypertensive rats; [11]): -20.0%
- Mean blood pressure (DOCA hypertensive rats; [12]): 139 mm Hg
- Percentage of change (mean blood pressure) (DOCA hypertensive rats; [12]): -22.5%
- Mean blood pressure (DOCA hypertensive rats; [13]): 151 mm Hg
- Percentage of change (mean blood pressure) (DOCA hypertensive rats; [13]): -14.5%
- Mean blood pressure (DOCA hypertensive rats; [14]): 176 mm Hg
- Percentage of change (mean blood pressure) (DOCA hypertensive rats; [14]): 0.0%
- Mean blood pressure (DOCA hypertensive rats; [15]): 130 mm Hg
- Percentage of change (mean blood pressure) (DOCA hypertensive rats; [15]): -26.2%
- Mean blood pressure (DOCA hypertensive rats; [16]): 144 mm Hg
- Percentage of change (mean blood pressure) (DOCA hypertensive rats; [16]): -18.4%
- Mean blood pressure (DOCA hypertensive rats; [17]): 135 mm Hg
- Percentage of change (mean blood pressure) (DOCA hypertensive rats; [17]): -23.6%
- Mean blood pressure (DOCA hypertensive rats; [18]): 138 mm Hg
- Percentage of change (mean blood pressure) (DOCA hypertensive rats; [18]): -22.3%
